Paper PMC5218480 (PLoS ONE, 2017)

Tested on: MV-4-11 cells
Experiment: Gene expression microarray analysis (Affymetrix PrimeView) and GSEA
Format: cell-based, human
Set-up: RFU PODN (11730768_x_at) / Fold change /veh PODN (11730768_x_at) / RFU LINC00158 (11744669_a_at) / Fold change /veh LINC00158 (11744669_a_at) / RFU DUSP10 (11751237_a_at) / Fold change /veh DUSP10 (11751237_a_at) / RFU ID3 (11757404_x_at) / Fold change /veh ID3 (11757404_x_at) / RFU PLEKHG5 (11737974_s_at) / Fold change /veh PLEKHG5 (11737974_s_at) / RFU LRRC4B (11730491_at) / Fold change /veh LRRC4B (11730491_at) / RFU GIMAP4 (11747438_a_at) / Fold change /veh GIMAP4 (11747438_a_at) / RFU KRT8 (11758183_x_at) / Fold change /veh KRT8 (11758183_x_at) / RFU CNN1 (11734310_a_at) / Fold change /veh CNN1 (11734310_a_at) / RFU VPS37D (11726825_at) / Fold change /veh VPS37D (11726825_at) / RFU C10orf10 (11716522_x_at) / Fold change /veh C10orf10 (11716522_x_at) / RFU KIR2DL2 /// KIR2DL4 /// KIR2DL5A /// KIR2DL5B /// KIR2DS1 /// KIR2DS2 /// KIR2DS3 /// KIR2DS4 /// KIR3DL3 /// KIR3DL3 /// KIR3DS1 (11738374_at) / Fold change /veh KIR2DL2 /// KIR2DL4 /// KIR2DL5A /// KIR2DL5B /// KIR2DS1 /// KIR2DS2 /// KIR2DS3 /// KIR2DS4 /// KIR3DL3 /// KIR3DL3 /// KIR3DS1 (11738374_at) / RFU C1QL1 (11718748_at) / Fold change /veh C1QL1 (11718748_at) / RFU TMPRSS4 (11747572_a_at) / Fold change /veh TMPRSS4 (11747572_a_at) / RFU HAMP (11756126_x_at) / Fold change /veh HAMP (11756126_x_at) / RFU RNFT2 (11725882_a_at) / Fold change /veh RNFT2 (11725882_a_at) / RFU NR4A2 (11747474_a_at) / Fold change /veh NR4A2 (11747474_a_at) / RFU ABCC12 (11746883_a_at) / Fold change /veh ABCC12 (11746883_a_at) / RFU TMEM136 (11760407_x_at) / Fold change /veh TMEM136 (11760407_x_at) / RFU CLDN22 /// WWC2 (11732394_at) / Fold change /veh CLDN22 /// WWC2 (11732394_at) / RFU HLA-DPB1 (11760878_x_at) / Fold change /veh HLA-DPB1 (11760878_x_at) / RFU SPINT1 (11716480_a_at) / Fold change /veh SPINT1 (11716480_a_at) / RFU GAP43 (11754022_s_at) / Fold change /veh GAP43 (11754022_s_at) / RFU A4GNT (11735810_at) / Fold change /veh A4GNT (11735810_at) / RFU PRB3 (11715151_x_at) / Fold change /veh PRB3 (11715151_x_at) / RFU TUBB4B (11761932_at) / Fold change /veh TUBB4B (11761932_at) / RFU CAPN14 (11732068_a_at) / Fold change /veh CAPN14 (11732068_a_at) / RFU TMCC2 (11721928_a_at) / Fold change /veh TMCC2 (11721928_a_at) / RFU IRGQ (11745062_a_at) / Fold change /veh IRGQ (11745062_a_at) / RFU FAM174B (11720279_a_at) / Fold change /veh FAM174B (11720279_a_at) / RFU TMPRSS4 (11748680_a_at) / Fold change /veh TMPRSS4 (11748680_a_at) / RFU FAM212B (11763350_a_at) / Fold change /veh FAM212B (11763350_a_at) / RFU PLEKHG5 (11743358_a_at) / Fold change /veh PLEKHG5 (11743358_a_at) / RFU ZSCAN30 (11745921_a_at) / Fold change /veh ZSCAN30 (11745921_a_at) / RFU CMKLR1 (11741424_a_at) / Fold change /veh CMKLR1 (11741424_a_at) / RFU LOC101060620 /// MAPK8IP1 (11723275_at) / Fold change /veh LOC101060620 /// MAPK8IP1 (11723275_at) / RFU SPTSSB (11747773_x_at) / Fold change /veh SPTSSB (11747773_x_at) / RFU PRSS12 (11739890_at) / Fold change /veh PRSS12 (11739890_at) / RFU BIN1 (11741810_x_at) / Fold change /veh BIN1 (11741810_x_at) / RFU WNT11 (11732464_a_at) / Fold change /veh WNT11 (11732464_a_at) / RFU C10orf10 (11716521_a_at) / Fold change /veh C10orf10 (11716521_a_at) / RFU C5orf56 (11738089_at) / Fold change /veh C5orf56 (11738089_at) / RFU CYB561 (11721691_x_at) / Fold change /veh CYB561 (11721691_x_at) / RFU ANKRD19P (11752326_a_at) / Fold change /veh ANKRD19P (11752326_a_at) / RFU OR2T12 /// OR2T33 /// OR2T8 (11738714_s_at) / Fold change /veh OR2T12 /// OR2T33 /// OR2T8 (11738714_s_at) / RFU VCAN (11748164_a_at) / Fold change /veh VCAN (11748164_a_at) / RFU JSRP1 (11732532_at) / Fold change /veh JSRP1 (11732532_at) / RFU KRTAP10-11 (11738290_x_at) / Fold change /veh KRTAP10-11 (11738290_x_at) / RFU MYO3A (11730013_a_at) / Fold change /veh MYO3A (11730013_a_at) / RFU EBF3 (11725865_a_at) / Fold change /veh EBF3 (11725865_a_at) / RFU CAMK2N1 (11719241_x_at) / Fold change /veh CAMK2N1 (11719241_x_at) / RFU C5orf56 (11738088_a_at) / Fold change /veh C5orf56 (11738088_a_at) / RFU OLFML3 (11715873_a_at) / Fold change /veh OLFML3 (11715873_a_at) / RFU LOC100653217 /// NTM (11731650_a_at) / Fold change /veh LOC100653217 /// NTM (11731650_a_at) / RFU MAPK11 (11762145_a_at) / Fold change /veh MAPK11 (11762145_a_at) / RFU FIZ1 (11724087_x_at) / Fold change /veh FIZ1 (11724087_x_at) / RFU OASL (11726364_x_at) / Fold change /veh OASL (11726364_x_at) / RFU SOX15 (11748057_x_at) / Fold change /veh SOX15 (11748057_x_at) / RFU CD79A (11719716_a_at) / Fold change /veh CD79A (11719716_a_at) / RFU HIST1H1D (11736915_at) / Fold change /veh HIST1H1D (11736915_at) / RFU CASKIN2 (11723855_a_at) / Fold change /veh CASKIN2 (11723855_a_at) / RFU LOC730098 (11760151_x_at) / Fold change /veh LOC730098 (11760151_x_at) / RFU OR4N2 (11742367_at) / Fold change /veh OR4N2 (11742367_at) / RFU PRRT2 (11749266_a_at) / Fold change /veh PRRT2 (11749266_a_at) / RFU SNX32 (11753110_a_at) / Fold change /veh SNX32 (11753110_a_at) / RFU CDHR5 (11726645_a_at) / Fold change /veh CDHR5 (11726645_a_at) / RFU RCAN1 (11760418_a_at) / Fold change /veh RCAN1 (11760418_a_at) / RFU FAM167A (11723789_a_at) / Fold change /veh FAM167A (11723789_a_at) / RFU FAM26E (11764081_at) / Fold change /veh FAM26E (11764081_at) / RFU ISYNA1 (11749810_s_at) / Fold change /veh ISYNA1 (11749810_s_at) / RFU ACY1 (11761880_at) / Fold change /veh ACY1 (11761880_at) / RFU 11764098_at / Fold change /veh 11764098_at / RFU SAMD14 (11745864_x_at) / Fold change /veh SAMD14 (11745864_x_at) / RFU NPB (11741838_a_at) / Fold change /veh NPB (11741838_a_at) / RFU TMPRSS6 (11731388_a_at) / Fold change /veh TMPRSS6 (11731388_a_at) / RFU KRTAP10-2 (11738614_at) / Fold change /veh KRTAP10-2 (11738614_at) / RFU ARHGAP8 /// PRR5-ARHGAP8 (11727945_x_at) / Fold change /veh ARHGAP8 /// PRR5-ARHGAP8 (11727945_x_at) / RFU KRTAP5-7 /// NADSYN1 (11734609_at) / Fold change /veh KRTAP5-7 /// NADSYN1 (11734609_at) / RFU RASL12 (11751679_a_at) / Fold change /veh RASL12 (11751679_a_at) / RFU CDKN2B (11736163_a_at) / Fold change /veh CDKN2B (11736163_a_at) / RFU PRF1 (11729649_at) / Fold change /veh PRF1 (11729649_at) / RFU, ZNF638 /// ZNF638-IT1 / Fold change vs veh, ZNF638 /// ZNF638-IT1 / RFU, PANK3 / Fold change vs veh, PANK3 / RFU, SH3YL1 / Fold change vs veh, SH3YL1 / RFU, ZEB2 / Fold change vs veh, ZEB2 / RFU, NRIP1 / Fold change vs veh, NRIP1 / RFU, PTTG1IP / Fold change vs veh, PTTG1IP / RFU, CAPN2 / Fold change vs veh, CAPN2 / RFU, MED14 / Fold change vs veh, MED14 / RFU, SNORA58 / Fold change vs veh, SNORA58 / RFU, C1orf63 / Fold change vs veh, C1orf63 / RFU, LRRFIP1 / Fold change vs veh, LRRFIP1 / RFU, NDUFAF7 / Fold change vs veh, NDUFAF7 / RFU, SLC12A2 / Fold change vs veh, SLC12A2 / RFU, IBTK / Fold change vs veh, IBTK / RFU, ESF1 / Fold change vs veh, ESF1 / Fold change vs veh, TMEM50B / RFU, TAOK1 / Fold change vs veh, TAOK1 / RFU, ACBD3 / Fold change vs veh, ACBD3 / RFU, TMA16 / Fold change vs veh, TMA16 / RFU, RWDD3 / Fold change vs veh, RWDD3 / RFU, BCAT1 / Fold change vs veh, BCAT1 / RFU, EDEM3 / Fold change vs veh, EDEM3 / RFU, TMEM33 / Fold change vs veh, TMEM33 / RFU, WDR75 / Fold change vs veh, WDR75 / RFU, AHCTF1 / Fold change vs veh, AHCTF1 / RFU, TFRC / Fold change vs veh, TFRC / RFU, ZDHHC17 / Fold change vs veh, ZDHHC17 / RFU, NOM1 / Fold change vs veh, NOM1 / RFU, ARL8B / Fold change vs veh, ARL8B / RFU, ZBTB11 / Fold change vs veh, ZBTB11 / RFU, TAMM41 / Fold change vs veh, TAMM41 / RFU, KIAA1704 /// LOC100996395 / Fold change vs veh, KIAA1704 /// LOC100996395 / RFU, ING1 / Fold change vs veh, ING1 / RFU, TRMT61B / Fold change vs veh, TRMT61B / RFU, FUBP3 / Fold change vs veh, FUBP3 / RFU, TP53 / Fold change vs veh, TP53 / RFU, TNKS2 / Fold change vs veh, TNKS2 / RFU, ZFP14 / Fold change vs veh, ZFP14 / RFU, ACTR2 / Fold change vs veh, ACTR2 / RFU, PPP3R1 / Fold change vs veh, PPP3R1 / RFU, PIK3R1 / Fold change vs veh, PIK3R1 / RFU, HNRNPA1 / Fold change vs veh, HNRNPA1 / RFU, RNF170 / Fold change vs veh, RNF170 / RFU, ZNF28 / Fold change vs veh, ZNF28 / RFU, RNGTT / Fold change vs veh, RNGTT / RFU, OGT / Fold change vs veh, OGT / RFU, BRD1 / Fold change vs veh, BRD1 / RFU, MARS / Fold change vs veh, MARS / RFU, ZNF655 / Fold change vs veh, ZNF655 / RFU, FAHD1 / Fold change vs veh, FAHD1 / RFU, BDP1 / Fold change vs veh, BDP1 / RFU, LRRCC1 / Fold change vs veh, LRRCC1 / RFU, ARID1A / Fold change vs veh, ARID1A / RFU, ZNF146 / Fold change vs veh, ZNF146 / RFU, ZNF330 / Fold change vs veh, ZNF330 / RFU, GPN3 / Fold change vs veh, GPN3 / RFU, C9orf123 / Fold change vs veh, C9orf123 / RFU, N4BP2L2 / Fold change vs veh, N4BP2L2 / RFU, ARFIP1 / Fold change vs veh, ARFIP1 / RFU, FAM179B / Fold change vs veh, FAM179B / RFU, BCL10 / Fold change vs veh, BCL10 / RFU, UHRF1BP1L / Fold change vs veh, UHRF1BP1L / RFU, BET1 / Fold change vs veh, BET1 / RFU, CNOT2 / Fold change vs veh, CNOT2 / RFU, ZNF268 / Fold change vs veh, ZNF268 / Fold change vs veh, ZNF507 / RFU, DGCR2 / Fold change vs veh, DGCR2 / RFU, WDSUB1 / Fold change vs veh, WDSUB1 / Fold change vs veh, HSP90B1 /// MIR3652 / RFU, ADSS / Fold change vs veh, ADSS / RFU, GK / Fold change vs veh, GK / RFU, ZNF148 / Fold change vs veh, ZNF148 / RFU, TAF9 / Fold change vs veh, TAF9 / RFU, SLC1A5 / Fold change vs veh, SLC1A5 / RFU, SLMO2 / Fold change vs veh, SLMO2 / RFU, ABCC4 / Fold change vs veh, ABCC4 / RFU, LOC101060439 /// RAP1B / Fold change vs veh, LOC101060439 /// RAP1B / RFU, RFX7 / Fold change vs veh, RFX7 / RFU, GTPBP10 / Fold change vs veh, GTPBP10 / RFU, CNEP1R1 / Fold change vs veh, CNEP1R1 / RFU, BIVM-ERCC5 /// ERCC5 / Fold change vs veh, BIVM-ERCC5 /// ERCC5 / RFU, ILF3 / Fold change vs veh, ILF3 / RFU 11762660_at / Fold change /veh 11762660_at / RFU VCAN (11757783_s_at) / Fold change /veh VCAN (11757783_s_at) / RFU DDX43 (11728927_at) / Fold change /veh DDX43 (11728927_at) / RFU KRT8 (11758188_x_at) / Fold change /veh KRT8 (11758188_x_at) / RFU NKD1 (11759106_at) / Fold change /veh NKD1 (11759106_at) / RFU SRD5A1 (11742802_a_at) / Fold change /veh SRD5A1 (11742802_a_at) / RFU TPSAB1 /// TPSB2 (11721975_s_at) / Fold change /veh TPSAB1 /// TPSB2 (11721975_s_at) / RFU GSTM3 (11746129_a_at) / Fold change /veh GSTM3 (11746129_a_at) / RFU IL23R (11737362_x_at) / Fold change /veh IL23R (11737362_x_at) / RFU TMEM51 (11727254_a_at) / Fold change /veh TMEM51 (11727254_a_at) / RFU PIWIL2 (11732686_x_at) / Fold change /veh PIWIL2 (11732686_x_at) / RFU ORM1 (11744905_x_at) / Fold change /veh ORM1 (11744905_x_at) / RFU CCDC152 (11743942_at) / Fold change /veh CCDC152 (11743942_at) / RFU ECM1 (11717891_a_at) / Fold change /veh ECM1 (11717891_a_at) / RFU IL23R (11748794_a_at) / Fold change /veh IL23R (11748794_a_at) / RFU TNFAIP8L3 (11732012_x_at) / Fold change /veh TNFAIP8L3 (11732012_x_at) / RFU MBOAT4 (11741988_at) / Fold change /veh MBOAT4 (11741988_at) / RFU 11764193_at / Fold change /veh 11764193_at / RFU TMEM53 (11763286_at) / Fold change /veh TMEM53 (11763286_at) / RFU MAGEB2 (11727129_at) / Fold change /veh MAGEB2 (11727129_at) / RFU TMEM200A (11744735_a_at) / Fold change /veh TMEM200A (11744735_a_at) / RFU CCDC152 (11751479_a_at) / Fold change /veh CCDC152 (11751479_a_at) / RFU FAM211A (11726209_a_at) / Fold change /veh FAM211A (11726209_a_at) / RFU RGS16 (11746705_a_at) / Fold change /veh RGS16 (11746705_a_at) / RFU VCAN (11755009_s_at) / Fold change /veh VCAN (11755009_s_at) / RFU RHOB (11743442_s_at) / Fold change /veh RHOB (11743442_s_at) / RFU RGS16 (11720943_a_at) / Fold change /veh RGS16 (11720943_a_at) / RFU RGS16 (11720944_at) / Fold change /veh RGS16 (11720944_at) / RFU, VPS4B / Fold change vs veh, VPS4B / RFU, CREB1 / Fold change vs veh, CREB1 / RFU, DNAJC13 / Fold change vs veh, DNAJC13 / RFU, GNAQ / Fold change vs veh, GNAQ / RFU, CDK5R1 / Fold change vs veh, CDK5R1 / RFU, ZRANB3 / Fold change vs veh, ZRANB3 / RFU, CUL4A / Fold change vs veh, CUL4A / RFU, CCNY / Fold change vs veh, CCNY / RFU, UFL1 / Fold change vs veh, UFL1 / RFU, COG3 / Fold change vs veh, COG3 / RFU, DIAPH2 / Fold change vs veh, DIAPH2 / RFU, SKA2 / Fold change vs veh, SKA2 / RFU, AFF3 / Fold change vs veh, AFF3 / RFU, LMF1 / Fold change vs veh, LMF1 / RFU, IPO11 / Fold change vs veh, IPO11 / RFU, DFFB / Fold change vs veh, DFFB / RFU, FOXP1 / Fold change vs veh, FOXP1 / RFU, CARD8 / Fold change vs veh, CARD8 / RFU, STRN3 / Fold change vs veh, STRN3 / RFU, ADK / Fold change vs veh, ADK / RFU, RASSF2 / Fold change vs veh, RASSF2 / RFU, WIPF1 / Fold change vs veh, WIPF1 / RFU, LARP1B / Fold change vs veh, LARP1B / RFU, RASA1 / Fold change vs veh, RASA1 / RFU, RB1 / Fold change vs veh, RB1 / RFU, PPFIA1 / Fold change vs veh, PPFIA1 / RFU, MAT2A / Fold change vs veh, MAT2A / RFU, CCT5 / Fold change vs veh, CCT5 / RFU, WDR92 / Fold change vs veh, WDR92 / RFU, CUX1 / Fold change vs veh, CUX1 / RFU, TTC7A / Fold change vs veh, TTC7A / RFU, TMEM135 / Fold change vs veh, TMEM135 / RFU, DEPTOR / Fold change vs veh, DEPTOR / RFU, CPM / Fold change vs veh, CPM / RFU, DNAJB6 / Fold change vs veh, DNAJB6 / RFU, CACNA2D3 / Fold change vs veh, CACNA2D3 / RFU, DTX4 / Fold change vs veh, DTX4 / RFU, TFCP2 / Fold change vs veh, TFCP2 / RFU, GMCL1 /// GMCL1P1 / Fold change vs veh, GMCL1 /// GMCL1P1 / RFU, AEBP2 / Fold change vs veh, AEBP2 / RFU, SNHG1 /// SNORD22 /// SNORD25 /// SNORD26 /// SNORD27 /// SNORD28 /// SNORD29 /// SNORD31 / Fold change vs veh, SNHG1 /// SNORD22 /// SNORD25 /// SNORD26 /// SNORD27 /// SNORD28 /// SNORD29 /// SNORD31 / Fold change (Aza/veh), C12orf56 (ProbeSet 11735607_a_at) / Fold change (ACY-1035/veh), C12orf56 (ProbeSet 11735607_a_at) / Fold change (Aza/veh), FGFR1OP (ProbeSet 11751329_s_at) / Fold change (ACY-1035/veh), FGFR1OP (ProbeSet 11751329_s_at) / Fold change (Aza/veh), VPS36 (ProbeSet 11739960_a_at) / Fold change (ACY-1035/veh), VPS36 (ProbeSet 11739960_a_at) / RFU SYPL1 (11715823_x_at) / Fold change /veh SYPL1 (11715823_x_at) / RFU IGFBP7 (11715501_s_at) / Fold change /veh IGFBP7 (11715501_s_at) / RFU REEP3 (11722064_at) / Fold change /veh REEP3 (11722064_at) / RFU IGLL1 (11728026_x_at) / Fold change /veh IGLL1 (11728026_x_at): dose or concentration left out as unconfirmed
Conditions: MV-4-11 cells, 48 hours

## Nc1ccc(-c2cccs2)cc1NC(=O)c1ccc2c(c1)cc(C1CC1)n2CCN1CCOCC1 [ACY-1035]
  RFU OASL (11726364_x_at): 41.33 RFU
